Data taken from US8697727B2, “N-substituted-heterocycloalkyloxybenzamide compounds and methods of use” (Rigel Pharmaceuticals, Inc., priority 2006, dated 2014).

Test system: AMPK
Test: AMPK activation, enzyme-linked immunosorbent assay
Assay type: cell-based
Summary of the method: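 Each compound's EC50 for AMPK activation was the endpoint. In a cell-based assay, AMPK activity was read out as the relative concentration of phosphorylated acetyl-CoA carboxylase, a product of AMPK, measured by enzyme-linked immunosorbent assay. Values fell into the ranges less than 1 μM, 1-10 μM, 10-20 μM, 20-50 μM, 50-100 μM, and >100 μM.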

| SMILES | EC50 |
| --- | --- |
| O=C(NC1CCN(Cc2ccccc2)CC1)c1ccc(OC2CCN(Cc3cccnc3)CC2)c(F)c1 [Compound 38, N-(1-benzylpiperidin-4-yl)-3-fluoro-4-(1-(pyridin-3-ylmethyl)piperidin-4-yloxy)benzamide] | 1000 to 10000 nM |
| O=C(NC1CCN(Cc2ccccc2)CC1)c1ccc(OC2CCN(Cc3ccccn3)CC2)c(F)c1 [Compound 39, N-(1-benzylpiperidin-4-yl)-3-fluoro-4-(1-(pyridin-2-ylmethyl)piperidin-4-yloxy)benzamide] | 1000 to 10000 nM |
| N#Cc1ccc(CN2CCC(Oc3cccc(C(=O)NC4CCN(Cc5ccccc5)CC4)c3)CC2)cc1 [Compound 50, N-(1-benzylpiperidin-4-yl)-3-(1-(4-cyanobenzyl)piperidin-4-yloxy)benzamide] | 1000 to 10000 nM |
| O=C(NC1CCN(Cc2ccccc2)CC1)c1cccc(OC2CCN(Cc3ccc(C(F)(F)F)cc3)CC2)c1 [Compound 52, N-(1-benzylpiperidin-4-yl)-3-(1-(4-(trifluoromethyl)benzyl)piperidin-4-yloxy)benzamide] | 1000 to 10000 nM |
| O=C(NC1CCN(Cc2ccccc2)CC1)c1cccc(OC2CCN(c3ccncc3)CC2)c1 [Compound 53, N-(1-benzylpiperidin-4-yl)-3-(1-(pyridin-4-yl)piperidin-4-yloxy)benzamide] | 10000 to 20000 nM |
| CN1CCC(NC(=O)c2ccc(OC3CCN(Cc4ccc(C(F)(F)F)cc4)CC3)c(Cl)c2)CC1 [Compound 58, 3-chloro-N-(1-methylpiperidin-4-yl)-4-(1-(4-(trifluoromethyl)benzyl)piperidin-4-yloxy)benzamide] | 1000 to 10000 nM |
| O=C(NC1CCN(Cc2ccccc2)CC1)c1cc(Cl)c(OC2CCN(Cc3cccc(C(F)(F)F)c3)CC2)c(Cl)c1 [Compound 62, N-(1-benzylpiperidin-4-yl)-3,5-dichloro-4-(1-(3-(trifluoromethyl)benzyl)piperidin-4-yloxy)benzamide] | < 1000 nM |
| O=C(NC1CCN(Cc2ccccc2)CC1)c1ccc(OC2CCN(Cc3ccc(OC(F)(F)F)cc3)CC2)cc1 [Compound 63, N-(1-benzylpiperidin-4-yl)-4-(1-(4-(trifluoromethoxy)benzyl)piperidin-4-yloxy)benzamide] | < 1000 nM |
| O=C(NC1CCN(Cc2ccccc2)CC1)c1ccc(OC2CCN(Cc3ccc(Cl)cc3)CC2)c(F)c1 [Compound 64, N-(1-benzylpiperidin-4-yl)-4-(1-(4-chlorobenzyl)piperidin-4-yloxy)-3-fluorobenzamide] | < 1000 nM |
| O=C(NC1CCN(Cc2ccccc2)CC1)c1ccc(OC2CCN(Cc3ccc(Cl)cc3)CC2)c(Cl)c1 [Compound 65, N-(1-benzylpiperidin-4-yl)-3-chloro-4-(1-(4-chlorobenzyl)piperidin-4-yloxy)benzamide] | < 1000 nM |
| O=C(NC1CCN(Cc2ccc(F)cc2)CC1)c1ccc(OC2CCN(Cc3ccc(Cl)cc3)CC2)c(Cl)c1 [Compound 66, 3-chloro-4-(1-(4-chlorobenzyl)piperidin-4-yloxy)-N-(1-(4-fluorobenzyl)piperidin-4-yl)benzamide] | < 1000 nM |
| N#Cc1ccc(CN2CCC(Oc3ccc(C(=O)NC4CCN(Cc5ccccc5)CC4)cc3Cl)CC2)cc1 [Compound 67, N-(1-benzylpiperidin-4-yl)-3-chloro-4-(1-(4-cyanobenzyl)piperidin-4-yloxy)benzamide] | < 1000 nM |
| Cc1ccc(CN2CCC(Oc3ccc(C(=O)NC4CCN(Cc5ccc(F)cc5)CC4)cc3Cl)CC2)cc1 [Compound 68, 3-chloro-N-(1-(4-fluorobenzyl)piperidin-4-yl)-4-(1-(4-methylbenzyl)piperidin-4-yloxy)benzamide] | < 1000 nM |
| O=C(NC1CCN(Cc2ccccc2)CC1)c1ccc(OC2CCN(Cc3ccc(F)c(F)c3)CC2)c(F)c1 [Compound 69, N-(1-benzylpiperidin-4-yl)-4-(1-(3,4-difluorobenzyl)piperidin-4-yloxy)-3-fluorobenzamide] | < 1000 nM |
| N#Cc1ccc(CN2CCC(Oc3ccc(C(=O)NC4CCN(Cc5ccc(Cl)cc5)CC4)cc3F)CC2)cc1 [Compound 70, N-(1-(4-chlorobenzyl)piperidin-4-yl)-4-(1-(4-cyanobenzyl)piperidin-4-yloxy)-3-fluorobenzamide] | < 1000 nM |
| O=C(NC1CCN(Cc2ccc(Cl)cc2)CC1)c1ccc(OC2CCN(Cc3ccc(F)c(F)c3)CC2)c(F)c1 [Compound 71, N-(1-(4-chlorobenzyl)piperidin-4-yl)-4-(1-(3,4-difluorobenzyl)piperidin-4-yloxy)-3-fluorobenzamide] | < 1000 nM |
| O=C(NC1CCN(Cc2ccc(Cl)cc2)CC1)c1ccc(OC2CCN(Cc3ccc(Cl)cc3)CC2)c(F)c1 [Compound 72, N-(1-(4-chlorobenzyl)piperidin-4-yl)-4-(1-(4-chlorobenzyl)piperidin-4-yloxy)-3-fluorobenzamide] | < 1000 nM |

The remaining lines, values ahead:

| EC50 | SMILES |
| --- | --- |
| < 1000 nM | O=C(NC1CCN(C(=O)c2ccncc2)CC1)c1ccc(OC2CCN(c3ccc(C(F)(F)F)cc3)CC2)c(F)c1 [Compound 40, 3-fluoro-N-(1-isonicotinoylpiperidin-4-yl)-4-(1-(4-(trifluoromethyl)phenyl)piperidin-4-yloxy)benzamide] |
| < 1000 nM | N#Cc1ccc(CN2CCC(Oc3ccc(C(=O)NC4CCN(Cc5ccccc5)CC4)cc3F)CC2)cc1 [Compound 41, N-(1-benzylpiperidin-4-yl)-4-(1-(4-cyanobenzyl)piperidin-4-yloxy)-3-fluorobenzamide] |
| < 1000 nM | Cc1ccc(CN2CCC(Oc3ccc(C(=O)NC4CCN(Cc5ccccc5)CC4)cc3F)CC2)cc1 [Compound 42, N-(1-benzylpiperidin-4-yl)-3-fluoro-4-(1-(4-methylbenzyl)piperidin-4-yloxy)benzamide] |
| < 1000 nM | N#Cc1ccc(CN2CCC(NC(=O)c3ccc(OC4CCN(c5ccc(C(F)(F)F)cc5)CC4)c(F)c3)CC2)cc1 [Compound 43, N-(1-(4-cyanobenzyl)piperidin-4-yl)-3-fluoro-4-(1-(4-(trifluoromethyl)phenyl)piperidin-4-yloxy)benzamide] |
| < 1000 nM | N#Cc1ccc(N2CCC(Oc3ccc(C(=O)NC4CCN(Cc5ccncc5)CC4)cc3F)CC2)cc1 [Compound 44, 4-(1-(4-cyanophenyl)piperidin-4-yloxy)-3-fluoro-N-(1-(pyridin-4-ylmethyl)piperidin-4-yl)benzamide] |
| < 1000 nM | N#Cc1ccc(CN2CCC(NC(=O)c3ccc(OC4CCN(c5ccc(C#N)cc5)CC4)c(F)c3)CC2)cc1 [Compound 45, N-(1-(4-cyanobenzyl)piperidin-4-yl)-4-(1-(4-cyanophenyl)piperidin-4-yloxy)-3-fluorobenzamide] |
| < 1000 nM | O=C(NC1CCN(Cc2ccccc2)CC1)c1cccc(OC2CCN(c3ccc(C(F)(F)F)cc3)CC2)c1 [Compound 46, N-(1-benzylpiperidin-4-yl)-3-(1-(4-(trifluoromethyl)phenyl)piperidin-4-yloxy)benzamide] |
| < 1000 nM | O=C(NC1CCN(Cc2ccccc2)CC1)c1ccc(OC2CCN(c3ccc(C(F)(F)F)cc3)CC2)cc1Cl [Compound 47, N-(1-benzylpiperidin-4-yl)-2-chloro-4-(1-(4-(trifluoromethyl)phenyl)piperidin-4-yloxy)benzamide] |
| < 1000 nM | N#Cc1ccc(N2CCC(Oc3cccc(C(=O)NC4CCN(Cc5ccccc5)CC4)c3)CC2)cc1 [Compound 48, N-(1-benzylpiperidin-4-yl)-3-(1-(4-cyanophenyl)piperidin-4-yloxy)benzamide] |
| < 1000 nM | N#Cc1ccc(N2CCC(Oc3ccc(C(=O)NC4CCN(Cc5ccccc5)CC4)c(Cl)c3)CC2)cc1 [Compound 49, N-(1-benzylpiperidin-4-yl)-2-chloro-4-(1-(4-cyanophenyl)piperidin-4-yloxy)benzamide] |
| < 1000 nM | N#Cc1ccc(CN2CCC(Oc3ccc(C(=O)NC4CCN(Cc5ccccc5)CC4)c(Cl)c3)CC2)cc1 [Compound 51, N-(1-benzylpiperidin-4-yl)-2-chloro-4-(1-(4-cyanobenzyl)piperidin-4-yloxy)benzamide] |
| < 1000 nM | O=C(NC1CCN(Cc2ccccc2)CC1)c1ccc(OC2CCN(Cc3ccc(OC(F)(F)F)cc3)CC2)c(Cl)c1 [Compound 54, N-(1-benzylpiperidin-4-yl)-3-chloro-4-(1-(4-(trifluoromethoxy)benzyl)piperidin-4-yloxy)benzamide] |
| < 1000 nM | O=C(NC1CCN(Cc2ccccc2)CC1)c1ccc(OC2CCN(Cc3ccc(C(F)(F)F)cc3)CC2)c(F)c1 [Compound 55, N-(1-benzylpiperidin-4-yl)-3-fluoro-4-(1-(4-(trifluoromethyl)benzyl)piperidin-4-yloxy)benzamide] |
| < 1000 nM | O=C(NC1CCN(Cc2ccccc2)CC1)c1ccc(OC2CCN(Cc3ccc(C(F)(F)F)cc3)CC2)c(Cl)c1 [Compound 56, N-(1-benzylpiperidin-4-yl)-3-chloro-4-(1-(4-(trifluoromethyl)benzyl)piperidin-4-yloxy)benzamide] |
| < 1000 nM | O=C(NC1CCN(Cc2ccccc2)CC1)c1ccc(OC2CCN(Cc3ccc(OC(F)(F)F)cc3)CC2)c(F)c1 [Compound 57, N-(1-benzylpiperidin-4-yl)-3-fluoro-4-(1-(4-(trifluoromethoxy)benzyl)piperidin-4-yloxy)benzamide] |
| < 1000 nM | O=C(NC1CCN(Cc2ccccc2)CC1)c1ccc(OC2CCN(Cc3cccc(C(F)(F)F)c3)CC2)c(F)c1 [Compound 59, N-(1-benzylpiperidin-4-yl)-3-fluoro-4-(1-(3-(trifluoromethyl)benzyl)piperidin-4-yloxy)benzamide] |
| < 1000 nM | O=C(NC1CCN(Cc2ccccc2)CC1)c1ccc(OC2CCN(Cc3cccc(C(F)(F)F)c3)CC2)c(Cl)c1 [Compound 60, N-(1-benzylpiperidin-4-yl)-3-chloro-4-(1-(3-(trifluoromethyl)benzyl)piperidin-4-yloxy)benzamide] |
| < 1000 nM | O=C(NC1CCN(Cc2ccccc2)CC1)c1ccc(OC2CCN(Cc3ccc(F)cc3)CC2)c(F)c1 [Compound 61, N-(1-benzylpiperidin-4-yl)-3-fluoro-4-(1-(4-fluorobenzyl)piperidin-4-yloxy)benzamide] |
